Assay results reported in patent publication US8435956B2, “Compositions and methods for protecting cells from toxic exposures” (Percitus Biosciences, LLC, priority 2007, dated 2013).
Several values for one entry are separate records, joined by “and”; a condition that tells them apart may be missing. Equal values may be shown once. One block for each compound: values may come before it.

Key:
hamsters = conditions: doses up to 5 mmoles/animal
[1] = target: T1, Calf intestinal alkaline phosphatase (CIAP) (Bos taurus, UniProt P19111); assay: Alkaline phosphatase dephosphorylation, free sulfhydryl groups measured with DTNB (Ellman's Reagent) at A412; type: biochemical
T1 construct: purchased Sigma
T1 sequence (P19111 20-506): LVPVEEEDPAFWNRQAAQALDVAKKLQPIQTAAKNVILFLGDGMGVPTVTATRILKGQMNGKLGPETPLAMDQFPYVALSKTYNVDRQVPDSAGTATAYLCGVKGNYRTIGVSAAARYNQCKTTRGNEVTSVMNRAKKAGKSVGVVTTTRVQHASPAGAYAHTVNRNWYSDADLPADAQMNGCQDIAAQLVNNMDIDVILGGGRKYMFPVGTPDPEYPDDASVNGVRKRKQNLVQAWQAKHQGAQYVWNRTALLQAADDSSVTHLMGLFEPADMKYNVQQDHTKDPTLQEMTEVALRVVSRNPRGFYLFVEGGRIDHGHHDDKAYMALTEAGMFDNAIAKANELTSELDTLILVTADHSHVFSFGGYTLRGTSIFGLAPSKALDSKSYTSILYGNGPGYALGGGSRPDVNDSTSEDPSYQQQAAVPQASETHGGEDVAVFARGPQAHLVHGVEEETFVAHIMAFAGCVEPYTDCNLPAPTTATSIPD
Experimental: Assays were performed to verify the ability of alkaline phosphatase to dephosphorylate compound (7) to create sulfydryl reactive groups. Calf intestinal alkaline phosphatase (CIAP, Sigma) was diluted in phosphate buffered saline (PBS) to 250 units/ml, and frozen in tubes containing 100 μl aliquots.
A second assay was performed to examine the ability of alkaline phosphatase to dephosphorylate compound (7) to create sulfydryl reactive groups. A 12.5 mM solution of Compound 7 was made (4 mg/ml) and used in the test reactions.
A time course of dephosphorylation was also performed using Compound 7, following the same reaction conditions as in Table 3.

HepG2 = tested on: HepG2
Experimental: The compound ((S)-ethyl 2-amino-5-((R)-1-ethoxy-1-oxo-3-(phosphonothio)propan-2-ylamino)-5-oxopentanoate monosodium salt) was tested for intracellular properties. In particular, experiments were conducted to determine the ability of the compound to enter into cells and generate glutathione. HepG2 were incubated with the compound with or without added bovine intestinal alkaline phosphatase (Sigma). Cells were scraped into SSA, vortexed and then spun.

mice = conditions: doses up to 5 mmoles/animal
[2] = randomized Phase III human trials: head and neck cancer, lung cancer, carboplatin myelosuppression, rectal cancer; cited from earlier work
[3] = co-administration of reduced glutathione, clinical trial; cited from earlier work

SMILES: CCOC(=O)[C@H](CSP(=O)([O-])O)NC(=O)CC[C@H](N)C(=O)OCC.[Na+] [Compound 7, (S)-ethyl 2-amino-5-((R)-1-ethoxy-1-oxo-3-(phosphonothio)propan-2-ylamino)-5-oxopentanoate monosodium salt]
overt toxicity (hamsters): no overt toxicity | time course of dephosphorylation (free sulfhydryl groups) ([1]; 30 min. period, A412 readings at 3 min. intervals, conditions as in Table 3): time dependent | dephosphorylation by alkaline phosphatase ([1]; conclusion from Table 3): dephosphorylated by alkaline phosphatase to yield free reactive sulfhydryl groups | A412 ([1]; with CIAP (50 μl): 10 μl 12.5 mM C7, 100 μl DTNB, 840 μl PBS, 10 min 37° C., listed as C7, monosodium salt): 0.547 and 0.526 | A412 ([1]; without CIAP (negative reaction): 10 μl 12.5 mM C7, 100 μl DTNB, 890 μl PBS, 10 min 37° C., listed as C7, monosodium salt): 0.044 and 0.039 | increase in cellular GSH (HepG2; HepG2, compound and alkaline phosphatase, in the presence of buthionine sulfoximine): greater than 5 fold | entry into cells (HepG2; HepG2, without prior hydrolysis of the phosphate group by alkaline phosphatase): did not enter cells | toxicity to cells (HepG2; HepG2 incubated with compound with or without alkaline phosphatase): did not exhibit any evidence of toxicity | increase in GSH contents (HepG2; HepG2 treated with the compound and alkaline phosphatase): 3.6 fold | overt toxicity (mice): no overt toxicity

A412 ([1]; reaction 2: 10 μl 5 mM AF, 890 μl PBS, no CIAP, no DTNB, 10 min room temperature): 0.00 | A412 ([1]; reaction 3: 10 μl 5 mM AF, 25 μl CIAP, 865 μl PBS, no DTNB, 10 min room temperature): 0.00 | A412 ([1]; reaction 4: 20 μl 5 mM AF, 50 μl CIAP (so in the source), 100 μl DTNB, 880 μl PBS, 10 min room temperature): 0.03 | A412 ([1]; reaction 5: 20 μl 5 mM AF, 50 μl CIAP, 100 μl DTNB, 830 μl PBS, 10 min room temperature): 0.34
SMILES: NCCCNCCSP(=O)(O)O [AF, S-2-(3-aminopropylamino)ethylphosphorothioic acid, reference compound]
toxicity of chemotherapy and radiation therapy [2]: reduce toxicity

A412 ([1]; reaction 1, positive control: 10 μl 2 mM GSH, 100 μl DTNB, 890 μl PBS, no CIAP, 5 min room temperature): 0.35
SMILES: N[C@@H](CCC(=O)N[C@@H](CS)C(=O)NCC(=O)O)C(=O)O [GSH, glutathione, reference compound]
neuropathy seen with oxaliplatin [3]: significantly reduce the neuropathy
